# Assay results reported in article PMC11272821, “Mechanistic safety assessment via multi-omic characterisation of systemic pathway perturbations following in vivo MAT2A inhibition” (Archives of Toxicology, 2024).
# Experiments:
# MTAP KO HCT116 xenograft = test system: MTAP KO HCT116 xenograft; design: method as in Atkinson et al. [2024]; conditions: ref Atkinson et al. [2024], cited from earlier work
# NaV1.5 = NaV1.5 (Homo sapiens, UniProt Q14524); assay: Cardiac ion channel panel; type: cell-based; conditions: Full curve
# Text: (§1) Full curve IC50 (µM) for hERG (human ether-a-go-go-related gene) and the cardiac ion channel panel (sodium and potassium ion channels; Nav1.5, IKs, Kv4.3), along with the L-type Calcium channel (Cav-1.2 Ver; verapamil, DIL; diltiazem), HepG2 C3A 3D spheroids, HepG2 C3A (2D cultures in glucose or galactose media), and THP1 cytotoxicity.
# IKs = IKs (Homo sapiens, UniProt P51787); assay: Cardiac ion channel panel; type: cell-based; conditions: Full curve
# Text: as §1
# Kv4.3 = Kv4.3 (Homo sapiens, UniProt Q9UK17); assay: Cardiac ion channel panel; type: cell-based; conditions: Full curve
# Text: as §1
# NaV1.5, sequence (Q14524 whole entry): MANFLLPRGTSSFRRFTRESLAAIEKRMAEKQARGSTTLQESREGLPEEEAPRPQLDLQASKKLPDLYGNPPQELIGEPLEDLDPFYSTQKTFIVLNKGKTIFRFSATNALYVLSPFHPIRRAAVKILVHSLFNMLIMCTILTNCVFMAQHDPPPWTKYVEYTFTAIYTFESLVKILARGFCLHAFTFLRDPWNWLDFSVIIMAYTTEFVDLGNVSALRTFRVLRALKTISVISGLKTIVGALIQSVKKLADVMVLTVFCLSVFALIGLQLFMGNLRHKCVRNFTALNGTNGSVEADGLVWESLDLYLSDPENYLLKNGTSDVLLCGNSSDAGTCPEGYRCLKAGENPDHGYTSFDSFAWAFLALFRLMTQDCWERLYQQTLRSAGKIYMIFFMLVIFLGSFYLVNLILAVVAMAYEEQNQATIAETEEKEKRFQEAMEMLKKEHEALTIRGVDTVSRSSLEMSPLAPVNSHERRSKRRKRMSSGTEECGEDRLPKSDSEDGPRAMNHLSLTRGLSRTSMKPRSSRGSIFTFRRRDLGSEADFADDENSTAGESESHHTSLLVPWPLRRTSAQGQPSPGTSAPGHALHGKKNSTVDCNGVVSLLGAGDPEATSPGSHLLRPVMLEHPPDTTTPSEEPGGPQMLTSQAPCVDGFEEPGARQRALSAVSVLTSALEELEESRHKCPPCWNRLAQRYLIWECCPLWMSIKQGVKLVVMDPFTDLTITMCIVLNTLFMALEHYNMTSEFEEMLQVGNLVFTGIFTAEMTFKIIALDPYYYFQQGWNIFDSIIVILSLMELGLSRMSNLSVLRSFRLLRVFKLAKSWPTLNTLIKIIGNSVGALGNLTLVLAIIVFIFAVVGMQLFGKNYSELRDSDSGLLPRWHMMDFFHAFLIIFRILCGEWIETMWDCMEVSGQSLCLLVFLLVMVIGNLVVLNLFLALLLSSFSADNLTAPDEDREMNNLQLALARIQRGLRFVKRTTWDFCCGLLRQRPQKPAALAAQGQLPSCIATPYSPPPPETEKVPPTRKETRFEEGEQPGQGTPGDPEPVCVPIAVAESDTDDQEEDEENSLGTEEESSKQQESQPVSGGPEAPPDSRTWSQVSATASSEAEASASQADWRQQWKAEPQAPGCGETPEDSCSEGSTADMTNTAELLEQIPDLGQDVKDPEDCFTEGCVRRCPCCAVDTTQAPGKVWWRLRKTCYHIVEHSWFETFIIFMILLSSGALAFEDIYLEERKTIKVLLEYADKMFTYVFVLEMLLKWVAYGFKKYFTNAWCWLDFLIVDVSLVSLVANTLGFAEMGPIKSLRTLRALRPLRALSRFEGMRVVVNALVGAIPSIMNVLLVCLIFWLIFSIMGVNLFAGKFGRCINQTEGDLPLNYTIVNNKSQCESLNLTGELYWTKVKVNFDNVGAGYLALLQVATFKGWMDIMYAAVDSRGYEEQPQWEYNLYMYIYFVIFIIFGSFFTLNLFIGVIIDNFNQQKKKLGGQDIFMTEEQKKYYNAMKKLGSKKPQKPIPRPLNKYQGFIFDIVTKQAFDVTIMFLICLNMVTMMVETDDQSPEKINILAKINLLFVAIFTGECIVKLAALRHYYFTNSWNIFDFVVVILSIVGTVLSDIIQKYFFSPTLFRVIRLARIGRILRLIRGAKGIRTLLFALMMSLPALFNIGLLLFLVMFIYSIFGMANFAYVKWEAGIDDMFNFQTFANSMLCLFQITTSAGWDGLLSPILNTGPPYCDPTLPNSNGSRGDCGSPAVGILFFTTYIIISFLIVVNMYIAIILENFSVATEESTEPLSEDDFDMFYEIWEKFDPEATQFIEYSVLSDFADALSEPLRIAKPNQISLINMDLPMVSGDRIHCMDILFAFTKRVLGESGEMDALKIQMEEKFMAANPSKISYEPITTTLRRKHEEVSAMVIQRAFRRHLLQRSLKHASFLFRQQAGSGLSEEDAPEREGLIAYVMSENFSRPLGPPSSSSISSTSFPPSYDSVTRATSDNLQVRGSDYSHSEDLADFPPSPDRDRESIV
# IKs, sequence (P51787 whole entry): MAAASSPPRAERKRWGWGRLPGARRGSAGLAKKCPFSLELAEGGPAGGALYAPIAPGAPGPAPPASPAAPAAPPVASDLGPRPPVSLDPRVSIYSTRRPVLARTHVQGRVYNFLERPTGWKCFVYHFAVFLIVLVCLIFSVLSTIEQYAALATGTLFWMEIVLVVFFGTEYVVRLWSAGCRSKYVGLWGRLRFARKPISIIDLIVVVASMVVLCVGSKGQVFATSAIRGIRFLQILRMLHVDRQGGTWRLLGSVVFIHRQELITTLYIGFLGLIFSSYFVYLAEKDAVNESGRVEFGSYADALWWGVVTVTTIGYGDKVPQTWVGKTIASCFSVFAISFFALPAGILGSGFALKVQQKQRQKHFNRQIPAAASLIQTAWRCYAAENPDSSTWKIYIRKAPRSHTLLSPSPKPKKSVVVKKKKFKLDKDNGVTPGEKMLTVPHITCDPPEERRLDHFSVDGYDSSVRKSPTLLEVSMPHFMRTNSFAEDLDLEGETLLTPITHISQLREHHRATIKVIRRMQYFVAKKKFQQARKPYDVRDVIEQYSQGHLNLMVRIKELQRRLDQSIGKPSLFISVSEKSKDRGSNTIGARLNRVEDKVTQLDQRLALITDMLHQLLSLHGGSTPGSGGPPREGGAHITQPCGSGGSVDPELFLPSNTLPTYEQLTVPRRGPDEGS
# Kv4.3, sequence (Q9UK17 whole entry): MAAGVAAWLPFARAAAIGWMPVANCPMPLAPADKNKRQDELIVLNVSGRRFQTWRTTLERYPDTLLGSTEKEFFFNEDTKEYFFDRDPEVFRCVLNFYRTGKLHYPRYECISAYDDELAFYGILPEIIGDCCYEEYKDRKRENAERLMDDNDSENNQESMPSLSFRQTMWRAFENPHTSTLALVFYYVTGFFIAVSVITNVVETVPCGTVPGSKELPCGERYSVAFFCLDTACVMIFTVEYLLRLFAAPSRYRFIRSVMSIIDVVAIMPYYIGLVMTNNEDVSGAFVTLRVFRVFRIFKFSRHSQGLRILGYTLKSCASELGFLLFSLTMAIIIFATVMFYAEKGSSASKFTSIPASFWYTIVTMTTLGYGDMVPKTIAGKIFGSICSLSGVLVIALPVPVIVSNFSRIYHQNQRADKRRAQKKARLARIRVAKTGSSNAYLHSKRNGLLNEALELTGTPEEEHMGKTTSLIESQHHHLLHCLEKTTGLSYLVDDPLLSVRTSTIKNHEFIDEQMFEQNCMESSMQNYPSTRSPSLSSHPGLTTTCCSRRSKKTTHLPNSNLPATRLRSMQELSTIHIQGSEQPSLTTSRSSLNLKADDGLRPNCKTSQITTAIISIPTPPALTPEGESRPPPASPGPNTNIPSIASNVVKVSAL
compound,measurement,setting,value
Cn1cc2cc(-c3cc4[nH]nc(C5CC5)c4n(-c4ccc(OC(F)F)cc4)c3=O)ccc2n1 [AZ’9567],depletion of SAM,"MTAP KO HCT116 xenograft; 20 mg/kg BID, day 24",> 90%
same,depletion of SDMA,"MTAP KO HCT116 xenograft; 20 mg/kg BID, day 24",> 90%
same,anti-tumour response,MTAP KO HCT116 xenograft; 20 mg/kg BID,robust anti-tumour response
same,anti-tumour and PD modulation (SDMA and SAM),"MTAP KO HCT116 xenograft; 3, 10, 30 mg/kg BID",robust anti-tumour and PD modulation
same,IC50,NaV1.5,> 40 µM
same,IC50,IKs,> 33.3 µM
same,IC50,Kv4.3,> 40 µM
